Values of other authors as cited in patent publication EP3335699A1, “SELEXIPAG FORMULATION IN LIQUISOLID SYSTEM” (H e x a l Aktiengesellschaft, priority 2016, dated 2018).

Conditions: low solubility and low permeability; b10 refers to crystalline forms

Structure (SMILES): CC(C)N(CCCCOCC(=O)NS(C)(=O)=O)c1cnc(-c2ccccc2)c(-c2ccccc2)n1 [selexipag]
- BCS (Biopharmaceutics Classification System) class: class IV
